Assay [1] has as its system miR-31 hairpin (pre-miR-31 residues 20-52) (RNA, miRNA) GGCAUAGCUGUUGAACUGGGAACCUGCUAUGCC
Nature of the assay: fluorescent indicator displacement. The note with it: KH2PO4 50 mM (500 mM in Methods), Mg2+ 1 mM, 100 μM compound, 50.9 nM RNA; for binding: TO-PRO-1 500 nM displaced by >15%; for % TO-PRO-1 displaced: TO-PRO-1 500 nM displaced.

For assay [2] the test system is unchanged. Put plainly: 1H-13C HSQC NMR titration (peak volumes). Conditions: KH2PO4 50 mM (500 mM in Methods), Mg2+ 1 mM, apparent, pH 7.5, 2% DMSO, 10% D2O, 37 °C, 100 μM RNA.
The test system is the same in assay [3]. Put plainly: fluorescence titration of dye with RNA. Conditions: KH2PO4 50 mM (500 mM in Methods), Mg2+ 1 mM; 500 nM TO-PRO-1, RNA 0-20 μM, pH 7.5, 2% DMSO, room temperature.
Assay [4] has the same test system. Nature of the assay: STD-NMR. The note with it: KH2PO4 50 mM (500 mM in Methods), Mg2+ 1 mM, 10 μM RNA, 200 μM ligand.
Assay [5] has the same test system. Put plainly: 1H-13C HSQC NMR. Conditions: KH2PO4 50 mM (500 mM in Methods), Mg2+ 1 mM; ND: no observable change at 10-fold ligand excess; 37 °C.
The test system is the same in assay [6]. Nature of the assay: 1H-13C HSQC NMR titration (chemical shift perturbation). Conditions: KH2PO4 50 mM (500 mM in Methods), Mg2+ 1 mM, apparent, pH 7.5, 2% DMSO, 10% D2O, 37 °C.

For `Nc1nc(N)c2c(ccc3[nH]ccc32)n1`, the binding result in assay [1] is reported as “yes”. In addition, the KD in assay [2] (non-specific at 10-fold excess) came to 20.64 ± 9.40 µM.

In assay [3], `C[n+]1c(C=C2C=CN(CCC[N+](C)(C)C)c3ccccc32)sc2ccccc21` had a KD of 0.46 ± 0.06 µM.

For the molecule `Cc1cccc(Nc2nc(N)nc(N)c2C#N)c1`, the binding entry is given as “weak” in assay [4] (pH 7.5, 25 °C) and “weak” in assay [5]. For the same molecule, in assay [1] (below 15% hit criterion), the “% TO-PRO-1 displaced” value is 7.6 ± 2.7%.

For `COc1ccc(Nc2nc(N)nc(N)c2C#N)cc1`, the binding entry is reported as “weak” in assay [4] (pH 7.5, 25 °C) and “weak” in assay [5]. Moreover, the “% TO-PRO-1 displaced” value in assay [1] (below 15% hit criterion) is reported as 7.6 ± 1.8%.

Regarding `Nc1cc(Nc2ccc(Br)cc2)nc(N)n1`, the KD in assay [6] is > >1000 μM. Moreover, the binding entry in assay [4] (pH 7.5, 2% DMSO, 25 °C) was “yes”; in assay [1], “yes”.

`Nc1ccc(-c2nc3cncc(N)c3[nH]2)c(O)c1`: the “% TO-PRO-1 displaced” value in assay [1] (2% DMSO, room temperature) is 28.6 ± 0.4%. Further, the KD in assay [2] (excess ligand non-specific) is 29.10 ± 0.15 µM.

As for `Nc1ccccc1-c1nc2cnccc2[nH]1`, in assay [6] (no saturation at 1 mM), the KD is listed as > >1000 μM. The binding result in assay [4] (pH 7.5, 25 °C, not detected by FID at 100 μM) is “yes”.

For the origin of these results see article PMC12320293 (2025).
